Measurements from ChEMBL document CHEMBL1201862, “PubChem BioAssay data set” (2004).
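1) Cells in 96-well plates. 2) Compound, 48 h, 5 concentrations. 3) Linear interpolation between surrounding doses. 4) Unreached endpoint = highest concentration. GI50 = concentration required for 50% inhibition of growth.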 Calls of active or inactive are those of the source. Rule as the data show it: active = GI50 up to about 1.1 µM and inactive = higher.

Columns and labels:
Experiment in all cases: DTP human tumour cell line panel, 48 h
M19-MEL = system: M19-MEL
HOP-18 = system: HOP-18
DLD-1 = system: DLD-1
DMS-273 = system: DMS-273
KM-20L2 = system: KM-20L2
RXF 631 = system: RXF 631
SNB-78 = system: SNB-78
XF498 = system: XF498
LXFL 529 = system: LXFL 529

SMILES | GI50 (M19-MEL) | GI50 (HOP-18) | GI50 (DLD-1) | GI50 (DMS-273) | GI50 (KM-20L2) | GI50 (RXF 631) | GI50 (SNB-78) | GI50 (XF498) | GI50 (LXFL 529)
COc1ccc(N2C(=O)c3c(c4[nH]c5ccccc5c4c4ccc(C(C)(C)C)cc34)C2=O)cc1 | 50.9 µM (inactive) | 58.1 µM (inactive) | > 100 µM (inactive) | 41.3 µM (inactive) | > 100 µM (inactive) | 40.6 µM (inactive) | 25.7 µM (inactive) | 20.7 µM (inactive) | 78.5 µM (inactive)
CCOc1ccccc1NC(=O)CCc1n[nH]c(=S)o1 | > 100 µM (inactive) | – | > 100 µM (inactive) | > 100 µM (inactive) | > 100 µM (inactive) | – | > 100 µM (inactive) | > 100 µM (inactive) | > 100 µM (inactive)
CCCCCC1CC=CC(NC(=O)OCc2ccccc2)C1/C=C/CCCC1OCCO1 (centres undefined) | > 91.4 µM (inactive) | > 100 µM (inactive) | > 66.5 µM (inactive) | 36.2 µM (inactive) | > 100 µM (inactive) | 48.3 µM (inactive) | > 100 µM (inactive) | 52 µM (inactive) | 40.6 µM (inactive)
COc1cc2c(c(OC)c1OC)-c1ccc(SC)c(=O)cc1C(CO)C2 (centres undefined) | 0.15 µM (active) | 24.8 µM (inactive) | 0.169 µM (active) | 0.0614 µM (active) | 0.157 µM (active) | < 0.01 µM (active) | 0.0966 µM (active) | 0.149 µM (active) | 0.136 µM (active)
CC1=Nn2c(nnc2-c2ccccc2Cl)NC(C)(C)C1 | > 100 µM (inactive) | – | 54.7 µM (inactive) | > 100 µM (inactive) | > 100 µM (inactive) | – | > 100 µM (inactive) | > 100 µM (inactive) | 63.7 µM (inactive)
C=CCOC1=C2CC[C@H](O)[C@@]2(C)CCC1=O | > 100 µM (inactive) | > 100 µM (inactive) | > 100 µM (inactive) | > 100 µM (inactive) | > 100 µM (inactive) | – | > 100 µM (inactive) | – | > 100 µM (inactive)
Nc1nc(SCc2ccc([N+](=O)[O-])cc2)nc2c1ncn2C1OC(CO)C(O)C1O (centres undefined) | > 100 µM (inactive) | – | > 100 µM (inactive) | > 100 µM (inactive) | > 100 µM (inactive) | – | > 100 µM (inactive) | > 100 µM (inactive) | 78.5 µM (inactive)
Cc1nc(-n2nc(-c3ccccc3)cc2-c2ccccc2)sc1C(=O)/C=C/c1ccc(Cl)cc1 | 18.4 µM (inactive) | 14.4 µM (inactive) | 13.2 µM (inactive) | 28.5 µM (inactive) | 24.4 µM (inactive) | – | 46 µM (inactive) | – | –
CCOC(OC1=C(C#N)CCC1)C(CC)[Se]c1ccccc1 (centres undefined) | 13.9 µM (inactive) | 27.2 µM (inactive) | 19.6 µM (inactive) | 11.2 µM (inactive) | 26.1 µM (inactive) | – | 29.3 µM (inactive) | 24.9 µM (inactive) | 16.5 µM (inactive)
O=CC(O)C(O)C(O)COc1cc(CO)cc2c1C(=O)c1ccccc1C2=O (centres undefined) | 37.6 µM (inactive) | > 100 µM (inactive) | > 100 µM (inactive) | > 100 µM (inactive) | > 100 µM (inactive) | > 100 µM (inactive) | > 100 µM (inactive) | > 100 µM (inactive) | > 100 µM (inactive)
[N-]=[N+]=NC(c1cn(C2CC(O)C(CO)O2)c(=O)[nH]c1=O)C(I)I (centres undefined) | > 100 µM (inactive) | 2.23 µM (inactive) | > 100 µM (inactive) | > 100 µM (inactive) | > 100 µM (inactive) | – | > 100 µM (inactive) | – | > 100 µM (inactive)
Cc1ccc(NCCN(C)C)c2c(=O)c3cc(O)ccc3sc12 | 10.4 µM (inactive) | 3.64 µM (inactive) | 6.61 µM (inactive) | 1.05 µM (active) | 8.87 µM (inactive) | – | 15.6 µM (inactive) | 4.12 µM (inactive) | 8.18 µM (inactive)
CCOC(=O)C1Oc2ccc([N+](=O)[O-])cc2C1(C)O (centres undefined) | > 100 µM (inactive) | – | > 100 µM (inactive) | > 100 µM (inactive) | – | – | > 100 µM (inactive) | > 100 µM (inactive) | > 100 µM (inactive)
CC(=O)c1cccc(NC(=O)C(=O)NNc2nnc(S)n2N)c1 | 0.805 µM (active) | 11.8 µM (inactive) | 7.38 µM (inactive) | 5.55 µM (inactive) | 14.1 µM (inactive) | 3.01 µM (inactive) | 11.3 µM (inactive) | 12.7 µM (inactive) | 10.7 µM (inactive)
C/C(=N\NC(=O)c1ccccc1O)C1=CNc2ccccc2S1 | 7.53 µM (inactive) | 6.25 µM (inactive) | 4.23 µM (inactive) | 3.1 µM (inactive) | 15.7 µM (inactive) | – | 7.94 µM (inactive) | 3.99 µM (inactive) | 0.875 µM (active)
CN(C)C(=N)NC(N)=S | > 100 µM (inactive) | > 100 µM (inactive) | > 100 µM (inactive) | > 100 µM (inactive) | > 100 µM (inactive) | > 100 µM (inactive) | > 100 µM (inactive) | > 100 µM (inactive) | > 100 µM (inactive)
O=c1[nH]c2c(nc1NC13CC4CC(CC(C4)C1)C3)c(=O)oc1ccccc12 | > 100 µM (inactive) | – | 23.8 µM (inactive) | 62.1 µM (inactive) | > 100 µM (inactive) | – | – | > 100 µM (inactive) | > 100 µM (inactive)
CN(C)[C@H]1CC[C@H]2[C@@H]3CCC4C[C@@H](NC(=O)NC(Cc5ccccc5)c5nccs5)CC[C@]4(C)[C@H]3CC[C@]12C (some centres undefined) | 1.85 µM (inactive) | – | 1.74 µM (inactive) | 1.94 µM (inactive) | 1.19 µM (inactive) | 1.92 µM (inactive) | – | 1.2 µM (inactive) | 0.488 µM (active)
C=CC/C=C/C/C=C/CCCCCCCc1cccc(O)c1C(=O)O | 43.9 µM (inactive) | 17.3 µM (inactive) | 35 µM (inactive) | 45.4 µM (inactive) | 86.1 µM (inactive) | > 100 µM (inactive) | > 100 µM (inactive) | > 100 µM (inactive) | 36.1 µM (inactive)
Cn1ncc(=S)[nH]c1=S | > 100 µM (inactive) | 47.6 µM (inactive) | > 100 µM (inactive) | > 100 µM (inactive) | > 100 µM (inactive) | > 100 µM (inactive) | > 100 µM (inactive) | > 100 µM (inactive) | > 100 µM (inactive)
Nc1nc(F)nc2c1ncn2C1OC(COP(=O)(O)O)C(O)C1O (centres undefined) | 46.1 µM (inactive) | 63.2 µM (inactive) | 101 µM (inactive) | 225 µM (inactive) | 105 µM (inactive) | – | 186 µM (inactive) | 66.8 µM (inactive) | –
O=C(c1ccc(Cl)cc1)c1cnc(Nc2ccccc2Cl)s1 | 34.1 µM (inactive) | – | 28.5 µM (inactive) | 20.1 µM (inactive) | – | – | – | – | 16.3 µM (inactive)
Cc1ccc(S(=O)(=O)NNS(C)(=O)=O)cc1 | > 100 µM (inactive) | – | > 100 µM (inactive) | > 100 µM (inactive) | > 100 µM (inactive) | – | – | – | > 100 µM (inactive)
COc1ccc(CC2NCCc3cc(OC)c(OC)cc32)cc1Br (centres undefined) | 20.7 µM (inactive) | 23.1 µM (inactive) | 66.7 µM (inactive) | 22.4 µM (inactive) | 25.8 µM (inactive) | – | 42.4 µM (inactive) | 11.9 µM (inactive) | 26.9 µM (inactive)
CCOC(=O)C(=O)C1C(=O)Nc2ccccc21 (centres undefined) | > 100 µM (inactive) | – | > 100 µM (inactive) | > 100 µM (inactive) | – | > 100 µM (inactive) | – | > 100 µM (inactive) | > 100 µM (inactive)
O=S1(=O)c2ccccc2N=C(c2ccccc2Cl)CC1c1ccc(F)cc1 (centres undefined) | 17.7 µM (inactive) | 9.62 µM (inactive) | 15.2 µM (inactive) | 22.3 µM (inactive) | 18.6 µM (inactive) | – | 19.1 µM (inactive) | 15.6 µM (inactive) | 17.8 µM (inactive)
